Assay results published in US20100144008A1, “TREATMENT OF FABRY DISEASE” (ACADEMISCH ZIEKENHUIS BIJ DE UNIVERSITEIT VAN AMSTERDAM, priority 2006, published 2010).
Read-outs that look alike come from different tables or passages of the source.

What was measured:
[1] = Partitioning of lyso-CTH in Bligh and Dyer and butanol/water extraction; assay type: physicochemical
Experimental: An optimal extraction procedure for lyso-CTH from plasma samples was established. A double extraction was carried out, first a Bligh and Dyer extraction followed by butanol extraction.

alpha-galactosidase A = target: T1, alpha-galactosidase A (Homo sapiens, UniProt P06280); assay: Inhibition of alpha-galactosidase A by lyso-CTH; assay type: biochemical
T1 sequence (P06280 32-429): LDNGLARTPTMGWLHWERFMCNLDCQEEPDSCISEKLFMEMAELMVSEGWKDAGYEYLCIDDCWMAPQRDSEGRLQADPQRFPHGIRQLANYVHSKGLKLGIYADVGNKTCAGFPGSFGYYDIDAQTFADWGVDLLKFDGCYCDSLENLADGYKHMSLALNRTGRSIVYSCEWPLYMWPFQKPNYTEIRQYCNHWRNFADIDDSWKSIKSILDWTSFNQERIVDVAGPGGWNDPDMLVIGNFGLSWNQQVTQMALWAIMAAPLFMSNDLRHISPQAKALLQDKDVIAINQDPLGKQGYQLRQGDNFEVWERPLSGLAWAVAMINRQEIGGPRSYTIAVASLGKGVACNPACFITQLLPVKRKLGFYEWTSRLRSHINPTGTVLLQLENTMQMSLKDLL

alpha-galactosidase B = target: T2, alpha-galactosidase B (Homo sapiens, UniProt P17050); assay: Inhibition of alpha-galactosidase B by lyso-CTH; assay type: biochemical
T2 sequence (P17050 18-411): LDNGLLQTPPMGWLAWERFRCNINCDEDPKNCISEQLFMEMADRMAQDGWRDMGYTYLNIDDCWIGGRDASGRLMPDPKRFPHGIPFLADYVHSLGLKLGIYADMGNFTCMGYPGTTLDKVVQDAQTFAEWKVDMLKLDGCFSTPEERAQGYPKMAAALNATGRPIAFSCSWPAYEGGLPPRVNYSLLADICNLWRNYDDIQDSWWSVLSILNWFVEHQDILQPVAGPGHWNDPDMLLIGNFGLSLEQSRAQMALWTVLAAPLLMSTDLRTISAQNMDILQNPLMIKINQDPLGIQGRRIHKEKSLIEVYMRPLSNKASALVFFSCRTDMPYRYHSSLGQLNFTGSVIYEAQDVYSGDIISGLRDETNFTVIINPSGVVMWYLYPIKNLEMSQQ

SMC-41 cell line = assay: Toxic effect in vitro: 3H thymidine incorporation and proliferation in SMC-41 cell line; assay type: cell-based; settings: lyso-CTH 0.065-0.65 μM (as found in plasma of Fabry patients); for proliferation of SMC-41 (smooth muscle cell proliferation): in vitro
Experimental: The toxic effect of lyso-CTH was determined in vitro in SMC-41 cell line. ^3H thymidine incorporation (per 24 h) was determined as a function of lyso-CTH concentration.

[2] = Plasma circulation of alphaGAL replacement enzyme in mouse model of Fabry disease; assay type: in vivo; settings: compared to underivatised agalsidase beta
Experimental: Via standard methods agalsidase beta (Fabrazyme®, Genzyme) is pegylated.
In a mouse model of Fabry disease at different time-points plasma samples are analysed for the presence of agalsidase beta to give reference values and at the same different time-points plasma samples are analysed for the presence of pegylated agalsidase beta.

lyso-CTH = assay: Plasma lyso-CTH concentration in mouse model of Fabry disease after enzyme; assay type: in vivo; settings: compared to underivatised agalsidase beta

CCCCCCCCCCCCC/C=C/[C@@H](O)[C@@H](N)CO[C@@H]1O[C@H](CO)[C@@H](O[C@@H]2O[C@H](CO)[C@H](O[C@H]3O[C@H](CO)[C@H](O)[C@H](O)[C@H]3O)[C@H](O)[C@H]2O)[C@H](O)[C@H]1O [lyso-CTH, lyso-ceramide trihexosamide]
Partitioning of lyso-CTH (% of total), lower phase ([1]; Bligh and Dyer extraction): 10 % of total
Partitioning of lyso-CTH (% of total), upper phase ([1]; Bligh and Dyer extraction): 90 % of total
Partitioning of lyso-CTH (% of total), lower phase ([1]; butanol/water extraction): 2 % of total
Partitioning of lyso-CTH (% of total), upper phase ([1]; butanol/water extraction): 99 % of total
Inhibition of alpha-galactosidase A (alpha-galactosidase A): inhibits
Inhibition of alpha-galactosidase A (alpha-galactosidase A; listed as Lyso-CTH): potent inhibitor
Inhibition of alpha-galactosidase B (alpha-galactosidase B): inhibits
Inhibition of alpha-galactosidase B (alpha-galactosidase B; listed as Lyso-CTH): potent inhibitor
3H thymidine incorporation (per 24 h) (SMC-41 cell line; SMC-41 cell line): increased isotope incorporation
proliferation of SMC-41 (smooth muscle cell proliferation) (SMC-41 cell line): increased proliferation
proliferation of SMC-41 (smooth muscle cell proliferation) (SMC-41 cell line; listed as Lyso-CTH): promote in vitro smooth muscle cell proliferation

pegylated agalsidase beta: agalsidase beta (Fabrazyme, Genzyme) pegylated via standard methods
plasma circulation time [2]: increase in plasma circulation time
concentration of lyso-CTH in the plasma samples (lyso-CTH): significantly lower
